Measurements as given in the kinase profiling compilation of Christmann-Franck et al. (2016).
Each block holds one compound with its values, some of them ahead of it.

What was measured:
Experiment in all cases: radiometric filter-binding kinase assay
DYRK2 (human) = DYRK2 (human) (UniProt Q92630)
PIM3 (human) = PIM3 (human) (UniProt Q86V86)
CSK (human) = CSK (human) (UniProt P41240)
PRKCA (human) = PRKCA (human) (UniProt P17252)
PIM1 (human) = PIM1 (human) (UniProt P11309)
[1] = system: PINK1 (Tribolium castaneum); settings: accession and sequence are those of the human protein
MELK (human) = MELK (human) (UniProt Q14680)
EEF2K (human) = EEF2K (human) (UniProt O00418)
HIPK2 (human) = HIPK2 (human) (UniProt Q9H2X6)
[2] = target: PRKAA1 PRKAB2 PRKAG1 (human) (UniProt O43741+Q13131+P54619)
SYK (human) = SYK (human) (UniProt P43405)
MAPK1 (human) = MAPK1 (human) (UniProt P28482)
PRKCZ (human) = PRKCZ (human) (UniProt Q05513)
BRSK2 (human) = BRSK2 (human) (UniProt Q8IWQ3)
CHEK2 (human) = CHEK2 (human) (UniProt O96017)
YES1 (human) = YES1 (human) (UniProt P07947)
PAK6 (human) = PAK6 (human) (UniProt Q9NQU5)
NEK6 (human) = NEK6 (human) (UniProt Q9HC98)
RPS6KA3 KD1 KD2 (human) = RPS6KA3 KD1 KD2 (human) (UniProt P51812)
SRPK1 (human) = SRPK1 (human) (UniProt Q96SB4)
CDK2 CCNA2 (human) = CDK2 CCNA2 (human) (UniProt P20248+P24941)
MAP2K1 (human) = MAP2K1 (human) (UniProt Q02750)
MAPK15 (human) = MAPK15 (human) (UniProt Q8TD08)
MKNK1 (human) = MKNK1 (human) (UniProt Q9BUB5)
MAPK8 (human) = MAPK8 (human) (UniProt P45983)
PKN2 (human) = PKN2 (human) (UniProt Q16513)
PLK1 (human) = PLK1 (human) (UniProt P53350)
[3] = system: SGK1 (human), O00141 [S422D]
CSNK2A1 (human) = CSNK2A1 (human) (UniProt P68400)
FGFR1 (human) = FGFR1 (human) (UniProt P11362)
CHEK1 (human) = CHEK1 (human) (UniProt O14757)
STK3 (human) = STK3 (human) (UniProt Q13188)
GSK3B (human) = GSK3B (human) (UniProt P49841)
PHKG1 (human) = PHKG1 (human) (UniProt Q16816)
CaMK1 (human) = CaMK1 (human) (UniProt Q14012)
PAK7 (human) = PAK7 (human) (UniProt Q9P286)
MAPK11 (human) = MAPK11 (human) (UniProt Q15759)
EPHA2 (human) = EPHA2 (human) (UniProt P29317)
RPS6KA1 KD1 KD2 (human) = RPS6KA1 KD1 KD2 (human) (UniProt Q15418)
AURKB (human) = AURKB (human) (UniProt Q96GD4)

Sequence of MELK (human) (Q14680 whole entry, looked up): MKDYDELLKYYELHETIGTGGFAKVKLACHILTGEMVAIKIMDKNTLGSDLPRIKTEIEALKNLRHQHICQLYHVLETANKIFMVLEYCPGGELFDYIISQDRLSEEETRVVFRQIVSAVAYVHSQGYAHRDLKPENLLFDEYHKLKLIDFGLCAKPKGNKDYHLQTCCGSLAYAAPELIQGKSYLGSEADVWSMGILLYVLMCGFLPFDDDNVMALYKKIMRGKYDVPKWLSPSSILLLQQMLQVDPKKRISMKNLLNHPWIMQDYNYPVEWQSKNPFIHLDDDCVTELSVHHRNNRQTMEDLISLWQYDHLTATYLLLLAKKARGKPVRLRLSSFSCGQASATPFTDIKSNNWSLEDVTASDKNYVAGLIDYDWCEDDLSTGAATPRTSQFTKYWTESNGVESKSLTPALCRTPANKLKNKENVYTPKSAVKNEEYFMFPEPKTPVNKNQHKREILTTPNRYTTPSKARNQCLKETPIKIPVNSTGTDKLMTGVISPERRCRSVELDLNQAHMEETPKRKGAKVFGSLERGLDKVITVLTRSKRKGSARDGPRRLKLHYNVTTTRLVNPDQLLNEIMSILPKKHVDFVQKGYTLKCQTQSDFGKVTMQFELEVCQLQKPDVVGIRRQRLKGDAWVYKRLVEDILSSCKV
Sequence of RPS6KA3 KD1 KD2 (human) (P51812 whole entry, looked up): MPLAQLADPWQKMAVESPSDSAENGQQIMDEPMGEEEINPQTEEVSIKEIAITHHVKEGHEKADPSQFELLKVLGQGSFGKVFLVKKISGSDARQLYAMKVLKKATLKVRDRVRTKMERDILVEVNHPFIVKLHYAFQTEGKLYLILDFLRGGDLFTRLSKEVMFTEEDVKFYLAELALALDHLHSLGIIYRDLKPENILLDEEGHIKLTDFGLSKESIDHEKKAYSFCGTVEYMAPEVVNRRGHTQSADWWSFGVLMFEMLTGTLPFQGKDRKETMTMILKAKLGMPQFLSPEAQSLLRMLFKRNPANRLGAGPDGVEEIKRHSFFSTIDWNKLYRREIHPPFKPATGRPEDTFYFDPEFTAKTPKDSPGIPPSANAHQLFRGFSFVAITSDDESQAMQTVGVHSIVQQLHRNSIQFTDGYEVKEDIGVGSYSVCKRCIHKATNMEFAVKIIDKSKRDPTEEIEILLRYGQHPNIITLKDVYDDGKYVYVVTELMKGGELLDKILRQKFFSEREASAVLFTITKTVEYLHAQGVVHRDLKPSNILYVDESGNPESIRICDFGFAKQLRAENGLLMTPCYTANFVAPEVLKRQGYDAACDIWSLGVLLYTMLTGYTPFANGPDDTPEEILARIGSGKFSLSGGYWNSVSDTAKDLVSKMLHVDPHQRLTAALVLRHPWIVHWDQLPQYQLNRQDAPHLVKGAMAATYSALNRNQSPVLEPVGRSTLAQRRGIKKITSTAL
Sequence of PHKG1 (human) (Q16816 whole entry, looked up): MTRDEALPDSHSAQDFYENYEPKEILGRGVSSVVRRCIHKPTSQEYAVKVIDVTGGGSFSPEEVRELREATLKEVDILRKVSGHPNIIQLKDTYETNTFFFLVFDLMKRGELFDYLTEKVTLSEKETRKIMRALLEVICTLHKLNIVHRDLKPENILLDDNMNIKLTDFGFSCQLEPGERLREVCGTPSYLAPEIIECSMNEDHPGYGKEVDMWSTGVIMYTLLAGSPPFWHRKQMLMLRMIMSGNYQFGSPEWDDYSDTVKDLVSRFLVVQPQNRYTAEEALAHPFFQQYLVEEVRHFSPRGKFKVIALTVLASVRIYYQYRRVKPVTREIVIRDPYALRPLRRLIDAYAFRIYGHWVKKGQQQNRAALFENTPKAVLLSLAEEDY
Sequence of SRPK1 (human) (Q96SB4 whole entry, looked up): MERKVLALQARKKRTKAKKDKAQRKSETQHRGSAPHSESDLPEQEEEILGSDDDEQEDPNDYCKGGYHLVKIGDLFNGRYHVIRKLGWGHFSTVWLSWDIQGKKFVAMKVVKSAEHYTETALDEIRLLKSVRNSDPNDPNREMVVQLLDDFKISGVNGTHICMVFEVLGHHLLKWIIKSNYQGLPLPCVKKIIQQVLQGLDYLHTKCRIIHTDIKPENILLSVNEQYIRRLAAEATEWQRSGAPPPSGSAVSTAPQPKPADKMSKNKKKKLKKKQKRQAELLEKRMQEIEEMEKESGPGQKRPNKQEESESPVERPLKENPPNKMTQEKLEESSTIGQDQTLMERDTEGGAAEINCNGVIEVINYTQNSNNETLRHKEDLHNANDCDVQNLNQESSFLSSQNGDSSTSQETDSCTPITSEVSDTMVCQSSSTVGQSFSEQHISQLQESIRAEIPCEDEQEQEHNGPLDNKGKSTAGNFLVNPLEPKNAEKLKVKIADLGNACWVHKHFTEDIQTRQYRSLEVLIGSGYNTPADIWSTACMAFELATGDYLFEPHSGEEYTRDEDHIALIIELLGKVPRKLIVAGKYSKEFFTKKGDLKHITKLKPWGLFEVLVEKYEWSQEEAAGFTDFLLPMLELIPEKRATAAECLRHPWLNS
Sequence of MAPK15 (human) (Q8TD08 whole entry, looked up): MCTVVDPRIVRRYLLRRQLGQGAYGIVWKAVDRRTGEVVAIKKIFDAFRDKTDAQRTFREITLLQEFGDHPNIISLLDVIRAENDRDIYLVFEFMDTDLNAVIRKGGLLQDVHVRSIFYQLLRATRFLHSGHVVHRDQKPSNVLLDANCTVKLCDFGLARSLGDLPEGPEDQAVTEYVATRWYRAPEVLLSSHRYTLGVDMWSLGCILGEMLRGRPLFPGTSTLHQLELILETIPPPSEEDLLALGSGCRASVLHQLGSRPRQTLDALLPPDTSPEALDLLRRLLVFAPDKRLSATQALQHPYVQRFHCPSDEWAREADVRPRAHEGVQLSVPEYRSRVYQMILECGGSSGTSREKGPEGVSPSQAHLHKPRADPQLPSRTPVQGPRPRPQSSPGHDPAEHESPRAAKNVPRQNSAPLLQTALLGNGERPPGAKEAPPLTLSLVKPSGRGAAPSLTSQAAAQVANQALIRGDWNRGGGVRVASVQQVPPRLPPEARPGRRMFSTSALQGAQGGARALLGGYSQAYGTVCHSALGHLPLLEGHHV
Sequence of EEF2K (human) (O00418 whole entry, looked up): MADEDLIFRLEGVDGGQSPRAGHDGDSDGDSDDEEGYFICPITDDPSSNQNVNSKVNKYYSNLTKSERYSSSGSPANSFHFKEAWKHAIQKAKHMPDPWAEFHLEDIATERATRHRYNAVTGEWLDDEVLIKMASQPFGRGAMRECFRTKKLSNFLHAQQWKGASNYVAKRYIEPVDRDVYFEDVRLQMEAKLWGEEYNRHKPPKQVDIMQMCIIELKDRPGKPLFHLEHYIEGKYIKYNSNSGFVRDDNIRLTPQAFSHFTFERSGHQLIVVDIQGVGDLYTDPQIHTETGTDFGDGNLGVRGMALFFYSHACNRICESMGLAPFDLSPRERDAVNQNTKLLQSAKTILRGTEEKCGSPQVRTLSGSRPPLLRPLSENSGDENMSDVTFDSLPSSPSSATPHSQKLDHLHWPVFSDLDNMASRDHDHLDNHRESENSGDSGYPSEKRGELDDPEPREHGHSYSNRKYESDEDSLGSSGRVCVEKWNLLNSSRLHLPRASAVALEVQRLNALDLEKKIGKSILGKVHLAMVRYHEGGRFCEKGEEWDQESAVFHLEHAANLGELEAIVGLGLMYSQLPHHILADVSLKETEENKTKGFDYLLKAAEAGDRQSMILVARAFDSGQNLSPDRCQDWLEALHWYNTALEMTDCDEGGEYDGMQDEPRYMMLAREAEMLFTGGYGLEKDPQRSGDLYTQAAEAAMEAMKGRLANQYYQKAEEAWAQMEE
Sequence of PLK1 (human) (P53350 whole entry, looked up): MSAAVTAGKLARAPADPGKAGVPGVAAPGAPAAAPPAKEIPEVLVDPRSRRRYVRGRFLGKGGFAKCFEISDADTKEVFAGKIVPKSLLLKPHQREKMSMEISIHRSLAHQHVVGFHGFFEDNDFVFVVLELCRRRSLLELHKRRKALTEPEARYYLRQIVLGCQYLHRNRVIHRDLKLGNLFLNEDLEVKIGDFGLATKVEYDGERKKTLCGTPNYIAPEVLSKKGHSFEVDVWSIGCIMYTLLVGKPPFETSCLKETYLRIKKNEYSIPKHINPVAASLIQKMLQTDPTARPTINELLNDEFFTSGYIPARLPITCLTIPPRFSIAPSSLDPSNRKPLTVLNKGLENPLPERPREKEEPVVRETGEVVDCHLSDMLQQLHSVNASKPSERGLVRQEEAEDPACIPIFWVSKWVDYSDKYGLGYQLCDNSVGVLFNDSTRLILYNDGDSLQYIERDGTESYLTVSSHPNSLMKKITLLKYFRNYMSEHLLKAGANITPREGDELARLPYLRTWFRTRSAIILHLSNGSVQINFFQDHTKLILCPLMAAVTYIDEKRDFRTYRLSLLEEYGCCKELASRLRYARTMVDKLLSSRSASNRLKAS
Sequence of MAPK1 (human) (P28482 whole entry, looked up): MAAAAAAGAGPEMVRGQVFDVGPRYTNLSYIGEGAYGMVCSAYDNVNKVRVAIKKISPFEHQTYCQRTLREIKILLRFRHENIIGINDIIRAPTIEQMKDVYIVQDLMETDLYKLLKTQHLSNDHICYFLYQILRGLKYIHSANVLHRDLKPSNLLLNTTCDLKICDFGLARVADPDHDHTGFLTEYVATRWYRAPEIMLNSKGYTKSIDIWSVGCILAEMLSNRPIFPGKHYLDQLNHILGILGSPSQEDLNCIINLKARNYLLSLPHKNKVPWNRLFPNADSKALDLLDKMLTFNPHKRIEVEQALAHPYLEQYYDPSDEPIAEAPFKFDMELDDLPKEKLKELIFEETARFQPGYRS

residual activity (DYRK2 (human); compound 20.0 µM): 69%
residual activity (PIM3 (human); compound 20.0 µM): 21%
residual activity (CSK (human); compound 20.0 µM): 98%
residual activity (PRKCA (human); compound 20.0 µM): 94%
residual activity (PIM1 (human); compound 20.0 µM): 19%
residual activity ([1]; compound 20.0 µM): 68%
residual activity (MELK (human); compound 20.0 µM): 70%
residual activity (EEF2K (human); compound 20.0 µM): 104%
residual activity (HIPK2 (human); compound 20.0 µM): 62%
residual activity ([2]; compound 20.0 µM): 99%
residual activity (SYK (human); compound 20.0 µM): 121%
residual activity (MAPK1 (human); compound 20.0 µM): 101%
residual activity (PRKCZ (human); compound 20.0 µM): 89%
residual activity (BRSK2 (human); compound 20.0 µM): 96%
residual activity (CHEK2 (human); compound 20.0 µM): 64%
residual activity (YES1 (human); compound 20.0 µM): 72%
residual activity (PAK6 (human); compound 20.0 µM): 90%
residual activity (NEK6 (human); compound 20.0 µM): 78%
residual activity (RPS6KA3 KD1 KD2 (human); compound 20.0 µM): 80%
residual activity (SRPK1 (human); compound 20.0 µM): 80%
residual activity (CDK2 CCNA2 (human); compound 20.0 µM): 54%
residual activity (MAP2K1 (human); compound 20.0 µM): 122%
residual activity (MKNK1 (human); compound 20.0 µM): 71%
residual activity (MAPK8 (human); compound 20.0 µM): 97%
residual activity (PKN2 (human); compound 20.0 µM): 86%
residual activity (PLK1 (human); compound 20.0 µM): 66%
residual activity ([3]; compound 20.0 µM): 70%
IC50 (CSNK2A1 (human)): > 40 µM
residual activity (CSNK2A1 (human); compound 20.0 µM): 52%
residual activity (FGFR1 (human); compound 20.0 µM): 62%
residual activity (CHEK1 (human); compound 20.0 µM): 74%
residual activity (STK3 (human); compound 20.0 µM): 39%
residual activity (GSK3B (human); compound 20.0 µM): 54%
residual activity (PHKG1 (human); compound 20.0 µM): 77%
residual activity (CaMK1 (human); compound 20.0 µM): 25%
residual activity (PAK7 (human); compound 20.0 µM): 64%
residual activity (MAPK11 (human); compound 20.0 µM): 106%
residual activity (EPHA2 (human); compound 20.0 µM): 86%
residual activity (RPS6KA1 KD1 KD2 (human); compound 20.0 µM): 70%
residual activity (AURKB (human); compound 20.0 µM): 75%
Compound: Oc1ccc2c(c1)C(O)c1cc(O)ccc1-2
residual activity (MAPK15 (human); compound 20.0 µM): 25%

residual activity (DYRK2 (human); compound 1.0 µM): 5%
residual activity (PIM3 (human); compound 1.0 µM): 17%
residual activity (CSK (human); compound 1.0 µM): 98%
residual activity (PRKCA (human); compound 1.0 µM): 101%
residual activity (PIM1 (human); compound 1.0 µM): 10%
residual activity ([1]; compound 1.0 µM): 80%
residual activity (MELK (human); compound 1.0 µM): 20%
residual activity (EEF2K (human); compound 1.0 µM): 85%
residual activity (HIPK2 (human); compound 1.0 µM): 17%
residual activity ([2]; compound 1.0 µM): 91%
residual activity (SYK (human); compound 1.0 µM): 84%
residual activity (MAPK1 (human); compound 1.0 µM): 106%
residual activity (PRKCZ (human); compound 1.0 µM): 70%
residual activity (BRSK2 (human); compound 1.0 µM): 66%
residual activity (CHEK2 (human); compound 1.0 µM): 79%
residual activity (YES1 (human); compound 1.0 µM): 95%
residual activity (PAK6 (human); compound 1.0 µM): 121%
residual activity (NEK6 (human); compound 1.0 µM): 77%
residual activity (RPS6KA3 KD1 KD2 (human); compound 1.0 µM): 40%
residual activity (SRPK1 (human); compound 1.0 µM): 83%
residual activity (CDK2 CCNA2 (human); compound 1.0 µM): 51%
residual activity (MAP2K1 (human); compound 1.0 µM): 94%
residual activity (MKNK1 (human); compound 1.0 µM): 66%
residual activity (MAPK8 (human); compound 1.0 µM): 81%
residual activity (PKN2 (human); compound 1.0 µM): 35%
residual activity (PLK1 (human); compound 1.0 µM): 104%
residual activity ([3]; compound 1.0 µM): 80%
IC50 (CSNK2A1 (human)): 4 µM
residual activity (CSNK2A1 (human); compound 1.0 µM): 87%
residual activity (FGFR1 (human); compound 1.0 µM): 77%
residual activity (CHEK1 (human); compound 1.0 µM): 92%
residual activity (STK3 (human); compound 1.0 µM): 64%
residual activity (GSK3B (human); compound 1.0 µM): 77%
residual activity (PHKG1 (human); compound 1.0 µM): 45%
residual activity (CaMK1 (human); compound 1.0 µM): 72%
residual activity (PAK7 (human); compound 1.0 µM): 94%
residual activity (MAPK11 (human); compound 1.0 µM): 87%
residual activity (EPHA2 (human); compound 1.0 µM): 84%
residual activity (RPS6KA1 KD1 KD2 (human); compound 1.0 µM): 83%
residual activity (AURKB (human); compound 1.0 µM): 81%
Compound: Oc1ccc2c(c1)oc1c3ccccc3c(O)cc21
residual activity (MAPK15 (human); compound 1.0 µM): 37%

Compound: COc1ccc2c(c1)[nH]c1c(C)nccc12
residual activity (DYRK2 (human); compound 1.0 µM): 35%
residual activity (PIM3 (human); compound 1.0 µM): 74%
residual activity (CSK (human); compound 1.0 µM): 103%
residual activity (PRKCA (human); compound 1.0 µM): 94%
residual activity (PIM1 (human); compound 1.0 µM): 74%
residual activity ([1]; compound 1.0 µM): 98%
residual activity (MELK (human); compound 1.0 µM): 93%
residual activity (EEF2K (human); compound 1.0 µM): 73%
residual activity (HIPK2 (human); compound 1.0 µM): 68%
residual activity ([2]; compound 1.0 µM): 106%
residual activity (SYK (human); compound 1.0 µM): 93%
residual activity (MAPK1 (human); compound 1.0 µM): 100%
residual activity (PRKCZ (human); compound 1.0 µM): 77%
residual activity (BRSK2 (human); compound 1.0 µM): 107%
residual activity (CHEK2 (human); compound 1.0 µM): 95%
residual activity (YES1 (human); compound 1.0 µM): 100%
residual activity (PAK6 (human); compound 1.0 µM): 107%
residual activity (NEK6 (human); compound 1.0 µM): 88%
residual activity (RPS6KA3 KD1 KD2 (human); compound 1.0 µM): 78%
residual activity (SRPK1 (human); compound 1.0 µM): 78%
residual activity (CDK2 CCNA2 (human); compound 1.0 µM): 80%
residual activity (MAP2K1 (human); compound 1.0 µM): 102%
residual activity (MAPK15 (human); compound 1.0 µM): 75%
residual activity (MKNK1 (human); compound 1.0 µM): 81%
residual activity (MAPK8 (human); compound 1.0 µM): 70%
residual activity (PKN2 (human); compound 1.0 µM): 61%
residual activity (PLK1 (human); compound 1.0 µM): 96%
residual activity ([3]; compound 1.0 µM): 78%
IC50 (CSNK2A1 (human)): > 40 µM
residual activity (CSNK2A1 (human); compound 1.0 µM): 83%
residual activity (FGFR1 (human); compound 1.0 µM): 103%
residual activity (CHEK1 (human); compound 1.0 µM): 94%
residual activity (STK3 (human); compound 1.0 µM): 81%
residual activity (GSK3B (human); compound 1.0 µM): 87%
residual activity (PHKG1 (human); compound 1.0 µM): 84%
residual activity (CaMK1 (human); compound 1.0 µM): 88%
residual activity (PAK7 (human); compound 1.0 µM): 90%
residual activity (MAPK11 (human); compound 1.0 µM): 92%
residual activity (EPHA2 (human); compound 1.0 µM): 87%
residual activity (RPS6KA1 KD1 KD2 (human); compound 1.0 µM): 93%
residual activity (AURKB (human); compound 1.0 µM): 94%
